Columns and labels:
PLD2 [1] = target: T1, PLD2 (Homo sapiens (Human), UniProt O14939); assay: Cellular CRCs: PLD2 response in HEK293gfpPLD2 (293-PLD2) cells; format: cell-based; conditions: for Fold Selective: cellular CRCs, selectivity for PLD2 (293-PLD2) over PLD1 (Calu-1)
Source text: In some aspects PLD activity in the cell is mediated predominately by PLD2. Thus, in some aspects, the cell stably overexpresses recombinant PLD2. For example, the cell can be a HEK293 cell stably overexpressing green florescent protein (GFP)-tagged PLD2.

PLD1 [2] = target: T2, PLD1 (Homo sapiens (Human), UniProt Q13393); assay: Cellular CRCs: PLD1 response in Calu-1 cells; format: cell-based
Source text: In some aspects PLD activity in the cell is mediated predominately by PLD1. Thus, in some aspects, the cell is the human non-small-cell lung cancer (NSCLC) cell line Calu-1. In some aspects, the cell has been stimulated to activate PLD1 in the cell. For example, the cell can be stimulated with phorbol 12-myristate 13-acetate (PMA).

PLD1 [3] = target: T2, PLD1; assay: Exogenous CRCs: in vitro PLD1 response; format: biochemical
Source text: (§1) The screening method can comprise providing a sample comprising a phosholipid and a PLD under conditions that allow the hydrolysis of the phospholipids to a phosphatidic acid, contacting the sample with a candidate agent, measuring enzymatic activity, comparing the enzymatic activity to a control, a decrease in enzymatic activity compared to the control identifying an agent that inhibits the PLD.
(§2) In some aspects, the PLD is a myr-Aff-1-stimulated mammalian human PLD1 or human PLD2.

PLD2 [4] = target: T1, PLD2; assay: Exogenous CRCs: in vitro PLD2 response; format: biochemical
Source text: as §1, §2

[5] = HEK293 cells overexpressing GFP-tagged PLD2, read-out: Cellular CRCs 293-PLD2 IC50
[6] = Calu-1 cells (PLD1), read-out: Cellular CRCs Calu-1 IC50
[7] = exogenous (in vitro) PLD2, read-out: Exogenous CRCs PLD2 IC50

T2 sequence (Q13393 whole entry): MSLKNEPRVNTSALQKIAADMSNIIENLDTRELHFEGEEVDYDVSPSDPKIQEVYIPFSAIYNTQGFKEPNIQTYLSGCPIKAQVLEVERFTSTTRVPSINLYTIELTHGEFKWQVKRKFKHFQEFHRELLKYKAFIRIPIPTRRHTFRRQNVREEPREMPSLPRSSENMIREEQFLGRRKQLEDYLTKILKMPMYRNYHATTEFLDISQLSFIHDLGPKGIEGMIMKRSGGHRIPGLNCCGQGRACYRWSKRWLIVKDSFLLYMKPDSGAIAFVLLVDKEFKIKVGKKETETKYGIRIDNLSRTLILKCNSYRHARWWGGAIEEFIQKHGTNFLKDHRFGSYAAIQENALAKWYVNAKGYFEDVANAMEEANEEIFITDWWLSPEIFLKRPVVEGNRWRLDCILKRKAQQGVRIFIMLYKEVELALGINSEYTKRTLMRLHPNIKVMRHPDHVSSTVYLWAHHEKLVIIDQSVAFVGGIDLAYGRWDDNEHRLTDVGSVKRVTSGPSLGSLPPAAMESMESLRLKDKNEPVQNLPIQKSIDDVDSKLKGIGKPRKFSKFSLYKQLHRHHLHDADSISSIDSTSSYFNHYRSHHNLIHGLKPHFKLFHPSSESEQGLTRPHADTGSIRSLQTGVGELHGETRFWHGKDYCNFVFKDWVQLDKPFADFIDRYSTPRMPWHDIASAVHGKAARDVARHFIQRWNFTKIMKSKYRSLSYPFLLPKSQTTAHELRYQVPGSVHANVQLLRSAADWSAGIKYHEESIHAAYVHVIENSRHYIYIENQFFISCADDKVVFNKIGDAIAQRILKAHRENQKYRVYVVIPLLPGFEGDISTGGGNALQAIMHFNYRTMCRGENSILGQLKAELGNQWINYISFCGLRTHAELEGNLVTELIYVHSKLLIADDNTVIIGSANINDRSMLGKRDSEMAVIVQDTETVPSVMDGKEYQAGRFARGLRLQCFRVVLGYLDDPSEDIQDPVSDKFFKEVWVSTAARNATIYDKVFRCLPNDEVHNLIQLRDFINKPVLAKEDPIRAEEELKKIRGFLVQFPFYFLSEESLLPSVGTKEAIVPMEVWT
T1 sequence (O14939 whole entry): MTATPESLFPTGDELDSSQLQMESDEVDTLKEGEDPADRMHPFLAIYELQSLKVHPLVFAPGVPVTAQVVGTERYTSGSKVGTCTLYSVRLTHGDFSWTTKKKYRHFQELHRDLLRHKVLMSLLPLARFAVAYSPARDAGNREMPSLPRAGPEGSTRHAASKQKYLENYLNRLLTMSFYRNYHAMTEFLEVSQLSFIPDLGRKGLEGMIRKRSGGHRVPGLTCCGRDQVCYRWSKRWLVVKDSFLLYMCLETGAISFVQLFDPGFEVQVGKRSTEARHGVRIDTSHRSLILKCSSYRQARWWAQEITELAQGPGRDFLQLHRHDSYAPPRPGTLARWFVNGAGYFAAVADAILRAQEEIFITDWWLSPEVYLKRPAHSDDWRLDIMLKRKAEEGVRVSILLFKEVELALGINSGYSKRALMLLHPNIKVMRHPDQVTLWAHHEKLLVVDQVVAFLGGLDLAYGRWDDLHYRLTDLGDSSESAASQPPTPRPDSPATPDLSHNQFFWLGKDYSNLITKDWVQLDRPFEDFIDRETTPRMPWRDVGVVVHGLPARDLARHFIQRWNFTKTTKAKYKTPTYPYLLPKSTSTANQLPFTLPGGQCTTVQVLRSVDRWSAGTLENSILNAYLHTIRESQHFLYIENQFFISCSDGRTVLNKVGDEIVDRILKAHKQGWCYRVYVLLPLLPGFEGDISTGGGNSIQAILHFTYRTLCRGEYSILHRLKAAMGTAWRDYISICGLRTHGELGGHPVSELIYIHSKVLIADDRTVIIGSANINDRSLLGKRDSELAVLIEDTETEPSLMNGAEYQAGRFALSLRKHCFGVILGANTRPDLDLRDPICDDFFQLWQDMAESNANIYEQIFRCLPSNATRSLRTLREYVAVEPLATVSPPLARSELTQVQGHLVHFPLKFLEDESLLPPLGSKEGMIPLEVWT

| Compound | IC50 (PLD2 [1]; [5]) [nM] | IC50 (PLD1 [2]; [6]) [nM] | IC50 (PLD2 [1]) [nM] | also measured |
| --- | --- | --- | --- | --- |
| O=C(NCCN1CCC2(CC1)C(=O)NC[C@@H]2c1ccc(F)cc1)C1C[C@H]1c1ccccc1.O=C(O)C(F)(F)F (stereo partly drawn) [P1E, trans-N-(2-((R)-4-(4-fluorophenyl)-1-oxo-2,8-diazaspiro[4.5]decan-8-yl)ethyl)-2-phenylcyclopropane-carboxamide 2,2,2-trifluoroacetate] | 760 | 6100 |  | Fold Selective (PLD2 [1]): 8-fold PLD2 |
| C[C@@H](CN1CCC2(CC1)C(=O)NC[C@H]2c1ccc(F)cc1)NC(=O)c1cc2ccccc2[nH]1 [NG3, N-((S)-1-((S)-4-(4-fluorophenyl)-1-oxo-2,8-diazaspiro[4.5]decan-8-yl)propan-2-yl)-1H-indole-2-carboxamide 2,2,2-trifluoroacetate] |  | 16 | 140 |  |
| C[C@@H](CN1CCC2(CC1)C(=O)NC[C@H]2c1ccc(F)cc1)NC(=O)c1ccc2ccccc2c1 [P1Q, N-((S)-1-((S)-4-(4-fluorophenyl)-1-oxo-2,8-diazaspiro[4.5]decan-8-yl)propan-2-yl)-2-naphthamide 2,2,2-trifluoroacetate] | 540 | 93 |  |  |
| C[C@@H](CN1CCC2(CC1)C(=O)NC[C@H]2c1ccc(F)cc1)NC(=O)C#Cc1ccccc1 [NJ5, N-((S)-1-((S)-4-(4-fluorophenyl)-1-oxo-2,8-diazaspiro[4.5]decan-8-yl)propan-2-yl)-3-phenylpropiolamide 2,2,2-trifluoroacetate] |  | 320 | 4000 |  |
| C[C@@H](CN1CCC2(CC1)C(=O)NC[C@@H]2c1ccc(F)cc1)NC(=O)c1cc2ccccc2[nH]1 [P1G, N-((S)-l-((R)-4-(4-fluorophenyl)-1-oxo-2,8-diazaspiro[4.5]decan-8-yl)propan-2-yl)-1H-indole-2-carboxamide 2,2,2-trifluoroacetate] |  |  | 12 | IC50 (PLD1 [2]): 1 nM |
| 4-fluoro-N-((S)-1- ((S)-4-(4- fluorophenyl)-1-oxo- 2,8- diazaspiro[4.5]decan- 8-yl)propan-2- yl)benzamide 2,2,2- trifluoroacetate [P2B] | 2800 | 1700 |  | IC50 (PLD1 [3]): 5150 nM; IC50 (PLD2 [4]; [7]): 9440 nM |
| O=C(C#Cc1ccccc1)NCCN1CCC2(CC1)C(=O)NC[C@@H]2c1ccc(F)cc1.O=C(O)C(F)(F)F [P0Q, (R)-N-(2-(4-(4-fluorophenyl)-1-oxo-2,8-diazaspiro[4.5]decan-8-yl)ethyl)-3-phenylpropiolamide 2,2,2-trifluoroacetate] |  |  | 70 | Fold Selective (PLD2 [1]): 17-fold PLD2; IC50 (PLD1 [2]): 1200 nM |
| O=C(NCCN1CCC2(CC1)C(=O)NC[C@@H]2c1ccc(F)cc1)c1cc2ccccc2[nH]1.O=C(O)C(F)(F)F [P23, (R)-N-(2-(4-(4-fluorophenyl)-1-oxo-2,8-diazaspiro[4.5]decan-8-yl)ethyl)-1H-indole-2-carboxamide 2,2,2-trifluoroacetate] |  |  | 2.5 | Fold Selective (PLD2 [1]): 8 fold PLD2; IC50 (PLD1 [2]): 21 nM |
| O=C(NCCN1CCC2(CC1)C(=O)NC[C@H]2c1ccc(F)cc1)c1ccc2ccccc2c1.O=C(O)C(F)(F)F [P1D] | 220 | 3700 |  | Fold Selective (PLD2 [1]): 17-Fol PLD2 fold |
| O=C(NCCN1CCC2(CC1)C(=O)NC[C@H]2c1ccc(F)cc1)c1ccc2ccccc2c1.O=C(O)C(F)(F)F [P22, (S)-N-(2-(4-(4-fluorophenyl)-1-oxo-2,8-diazaspiro[4.5]decan-8-yl)ethyl)-2-naphthamide 2,2,2-trifluoroacetate] | 26 | 820 |  | Fold Selective (PLD2 [1]; trifluoroacetate): 32-fold PLD2; IC50 (PLD1 [3]): 3900 nM; IC50 (PLD2 [4]; [7]): 73 nM |
| C[C@@H](CN1CCC2(CC1)C(=O)NC[C@@H]2c1ccc(F)cc1)NC(=O)c1ccc(F)cc1 [NGH, 4-fluoro-N-((S)-1-((R)-4-(4-fluorophenyl)-1-oxo-2,8-diazaspiro[4.5]deean-8-yl)propan-2-yl)benzamide 2,2,2-txifluoroacetate] |  |  | 210 | IC50 (PLD1 [2]): 250 nM; IC50 (PLD2 [4]): 2240 nM |
| C[C@@H](CN1CCC2(CC1)C(=O)NCC2c1ccc(F)cc1)NC(=O)C1C[C@H]1c1ccccc1 (stereo partly drawn) [NGQ, trans-N-((S)-1-((S)-4-(4-fluorophenyl)-1-oxo-2,8-diazaspiro[4.5]decan-8-yl)propan-2-yl)-2-phenylcyclopropane-carboxamide 2,2,2-trifluoroacetate] | > 20000 | 3000 |  |  |
| C[C@@H](CN1CCC2(CC1)C(=O)NC[C@@H]2c1ccc(F)cc1)NC(=O)C#Cc1ccccc1 [NGF, N—((S)-1-((R)-4-(4-Fluorophenyl)-1-oxo-2,8-diazaspiro[4.5]decan-8-yl)propan-2-yl)-3-phenylpropiolamide 2,2,2-trifluoroacetate] |  | 16 | 150 |  |
| C[C@@H](CN1CCC2(CC1)C(=O)NC[C@@H]2c1ccc(F)cc1)NC(=O)C1C[C@H]1c1ccccc1 (stereo partly drawn) [P0A, trans-N-((S)-1-((R)-4-(4-fluorophenyl)-1-oxo-2,8-diazaspiro[4.5]decan-8-yl)propan-2-yl)-2-phenylcyclopropane-carboxamide 2,2,2-trifluoroacetate] | 14000 | 600 |  |  |
